{"source": "the NIST ThermoML archive (doi:10.1016/j.jct.2012.06.003)", "key": {"[1]": {"settings": "for Normal melting temperature: Crystal"}, "[2]": {"assay": "Molar enthalpy of transition or fusion", "settings": "DSC"}}, "note": "Numbers after ± are expanded uncertainties.", "data": [{"smiles": "CCCCCC[n+]1cccc(C)c1.O=S(=O)([O-])C(F)(F)F", "note": "[1-hexyl-3-methylpyridinium trifluoromethanesulfonate]", "values": [{"measurement": "Triple point temperature", "setting": "[1]; Crystal 2, DTA", "result": "310.3 ± 0.4", "unit": "K"}, {"measurement": "Normal melting temperature", "setting": "[1]; DTA", "result": "64.61 ± 0.39", "unit": "°C"}, {"measurement": "Normal melting temperature", "setting": "[1]; Visual method", "result": "63 ± 0.1", "unit": "°C"}, {"measurement": "Molar enthalpy of transition or fusion", "setting": "[2]; Crystal 2", "result": "0.467 ± 0.0526", "unit": "kcal/mol"}, {"measurement": "Molar enthalpy of transition or fusion", "setting": "[2]; Crystal", "result": "10 ± 0.217", "unit": "kcal/mol"}]}]}
